System: primary MM cells
Type: cell-based
Conditions: patient 210's primary MM cells, 0.05 μM, interval of 120 hours
Description: Each well was imaged every 30 minutes for a total duration of up to 6 days.

CC(C)C[C@H](NC(=O)[C@H](CCc1ccccc1)NC(=O)CN1CCOCC1)C(=O)N[C@@H](Cc1ccccc1)C(=O)N[C@@H](CC(C)C)C(=O)[C@@]1(C)CO1 [carfilzomib]
delay between start of treatment and initiation of cell death: ~30 h

Reference: patent US20220412955A1, “A MODEL OF CLINICAL SYNERGY IN CANCER” (priority 2019, published 2022)
